Tests used:
[1] = system: THP1-Dual™ KO-TREX1 cells; test: Cellular assay for altering IFN production in THP1 TREX1 KO cells; format: cell-based; conditions: in the presence of 1 μM 5-aza-2′-deoxycytidine, five days
Protocol: (§1) THP1-Dual™ KO-TREX1 cells were purchased from Invivogen (cat #thpd-kotrex). The THP1-Dual™ KO-TREX1 cells were cultured in RPMI 1640, 10% heat-inactivated fetal bovine serum, 25 mM HEPES, 10 μg/mL Blasticidin, and 100 μg/mL Zeocin. THP1-Dual™ KO-TREX1 cells were treated with a dose titration of test compound in the presence of 1 μM 5-aza-2′-deoxycytidine (Sigma, cat #189825). Type 1 Interferon and cell viability were assessed after five days of treatment.
(§2) Stock solution of test compound was prepared in DMSO followed by a three-fold dilution in DMSO. Additional 50× dilution was prepared in cell culture media for each dilution. 10 μL of diluted test compound was then added to a 384-well plate.
(§3) THP1-Dual™ KO-TREX1 cells were treated with 1 μM 5-aza-2′-deoxycytidine. THP1-Dual™ KO-TREX1 cells (50 μL) were added to each well of the 384-well plate containing test compound titration at 10,000 cells/well. Cells were incubated at 37° C., 5% CO2 in a humidified incubator for five days. On day five, 20 μL of cell supernatant was transferred to a 384-well, white-walled plate, followed by addition to each well of 50 μL of QUANTI-LUC solution containing stabilizer. Luminescence was detected on a plate reader according to manufacturer's instructions. […]

[2] = target: T1, LINE1 reverse transcriptase (Homo sapiens, UniProt O00370); test: Transient artificial-intron Cis LINE1 reporter assay; format: cell-based; conditions: HEK 293 cells, FLuc/RLuc ratio, read-out: IC50 for inhibition of FLuc luminescence
T1 construct: expressed in transfected cells
Protocol: Intron-disrupted Firefly luciferase (FLuc) expression cassettes were generated as described by Xie, Y. et al. “Characterization of L1 retrotransposition with high-throughput dual-luciferase assays,” Nucleic Acid Res. (2011) Vol. 39, No. 3, e16. In addition, the plasmid contained an intact Renilla luciferase (RLuc) expression cassette on the vector backbone, in order to normalize transfection efficiency and measure potential cell toxicity.
HEK 293 cells were seeded in 96-well plates at 1,000 cells/well in 55 μL and grown for 24 hours. Cells were transfected with FuGeneHD (Promega) following the manufacturer's protocol. Each well received 0.133 ng plasmid, 0.4 μL FuGeneHD reagent, and 4.5 μL GlutaMAX-I-supplemented Opti-MEM I reduced-serum medium (Invitrogen). Cells were simultaneously treated with test compound serially diluted starting at 100 μM in a 3-fold dilution dose response.
Luminescence was measured using the Dual-Glo Luciferase Assay System (Promega) following the manufacturer's instructions. The ratio between FLuc and RLuc gene expression was used to report LINE1 activity.

[3] = system: THP1-Dual™ KO-TREX1 cells; test: CellTiter-Glo cell viability in THP1 TREX1 KO cells; format: cell-based; conditions: Homo sapiens, 120 h, in the presence of 1 μM 5-aza-2′-deoxycytidine, five days, read-out: CellTiter-Glo inhibition IC50
Protocol: as §1, §2
as §3, with “On day five, 20 μL of cell supernatant was transferred to a 384-well, white-walled plate, followed by addition to each well of 50 μL of QUANTI-LUC solution containing stabilizer.” left out
The remaining cells were assessed for cell viability by adding 30 μl of CellTiter-Glo (Promega, G9683) solution to each well, and placed on a shaker for 10 minutes at room temperature. Luminescence was detected on a plate reader, according to manufacturer's instructions. […]

[4] = system: IFN-β production in PBMCs; test: Decitabine-stimulated human PBMC assay; format: cell-based; conditions: PBMCs with anti-CD3/anti-CD28 and 10 μM decitabine, 5 days
Protocol: EasySep buffer (32 mL, Stem Cell, cat. #20144) was used to dilute 8 mL of LRSC buffy coat (from fresh Leukopak) with gentle mixing. The diluted buffy coat (20 mL) was transferred into each of two SepMate 50 tubes, and the tubes were filled with 15 mL of Lyphoprep (Stem Cell, ct. #07851) density gradient. The SepMate tubes were then centrifuged at […] for 10 minutes at room temperature with the brake on. The top layer of supernatant was collected in SepMate tubes by quickly pouring it into a new 50 mL conical tube. The PBMCs were washed with EasySep buffer x2 by centrifuging at 300G for 5 minutes. The cells were resuspended in 30 mL of EasySep and centrifuged at 100G for 5 minutes with the brake off, and the platelets were removed. The cells were then resuspended in 6 mL of 1×RBC lysis buffer (InvitroGen) and incubated at 37° C. for 5 minutes. Then, 25 mL of EasySep buffer was mixed into the tube and it was centrifuged at 300G for 5 minutes. The cells were resuspended in 10 mL of EasySep buffer and the cells were then counted with Cellometer (AO/PI). The PBMCs were resuspended in RPMI1640 (ThermoFisher)+10% FBS (HyClone)+p/s at 3×10^6/mL. The PBMCs (100 μL, 300 k PBMCs) were then seeded in a 96-well flat bottom microplate (Corning) that had been precoated with 100 μL of anti-CD3 antibody (10 μg/mL in PBS, Biolegend) or PBS at 4° C., one day before the assay was commenced. […]

[5] = target: T1, LINE1 reverse transcriptase; test: Stable artificial-intron Cis LINE1 reporter assay (HeLa Tet-On 3G); format: cell-based; conditions: HeLa L1 reporter cells, doxycycline induced, 72 h; read-out: IC50 for inhibition of FLuc luminescence
Excerpt: A stable HeLa Tet-On 3G (Takara, cat no 631183) cell line expressing a bi-directional inducible LINE1 construct was generated as described in Xie, Y. et al. “Cell division promotes efficient retrotransposition in a stable L1 reporter cell line,” Mobile DNA (2013) 4:10. Single cell clones were screened for high Luciferase expression and the highest expression Firefly expressing clone was chosen for compound testing.
Test compound was serially diluted in DMSO and spotted in 96-well plates. Subsequently the HeLa L1 artificial-intron reporter cells were plated into the compound-containing wells (8,000 cells/well), and the cells were induced for reporter expression with doxycycline (Sigma cat no D9891) at a final concentration of 500 ng/mL. Luminescence was measured 72 h after plating using the Dual-Glo Luciferase Assay System (Promega cat no E2940) following the manufacturer's instructions. The Firefly Luciferase activity was used to report LINE1 activity.

SK-OV-3 cells = test: Cancer cell viability assay with 3D cell colonies (CellTiter-Glo), SK-OV-3; format: cell-based; conditions: 3D tumorsphere growth, 7 days
Protocol: (§4) Ovarian cancer cell line SK-OV-3 cells were cultured in McCoy's 5a media containing 10% FBS. Ovarian cancer cell line OVCAR-8 cells were cultured in RPMI media containing 10% FBS. Additional cancer cell lines were cultured in the following media: • Ovarian cancer SW756 cells—L-15 (100% air)+10% FBS • Esophageal cancer TE-1 cells—RPMI-1640+10% FBS • Esophageal cancer KYSE-410 cells—RPMI-1640+5˜10% FBS • Esophageal cancer KYSE-70 cells—RPMI-1640+10% h.i.FBS. • Pharyngeal cancer FaDu cells—MEM+0.01 mM NEAA+10% FBS
(§5) Cell colony formation was tested using a 3D methylcellulose-based CellTiter-Glo (CTG) viability assay (Cat. No: G7573, Promega). Briefly, cells were inoculated into 96-well plates (at 1,500 cells per well) into a solution of 0.65% methylcellulose in growth media and incubated overnight at 37° C. in 5% CO2. The next day, serially diluted test compound (islatravir) or positive control (cisplatin, Cat. No. 6J015A89, Qilu Pharma) were added at the indicated concentrations, and the cells were incubated for 7 days. On day seven, 100 μL of CTG reagent was added, and the plates were incubated at room temperature for 20 min. Luminescence was read on an Envision Multi Label Reader according to manufacturer's instructions. IC50 values were determined using the following calculation: […]

SW756 cells = test: Cancer cell viability assay with 3D cell colonies (CellTiter-Glo), SW756; format: cell-based; conditions: 7 days
Protocol: as §4, §5

KYSE-410 cells = test: Cancer cell viability assay with 3D cell colonies (CellTiter-Glo), KYSE-410; format: cell-based; conditions: 7 days
Protocol: as §4, §5

FaDu cells = test: Cancer cell viability assay with 3D cell colonies (CellTiter-Glo), FaDu; format: cell-based; conditions: 7 days
Protocol: as §4, §5

KYSE-70 cells = test: Cancer cell viability assay with 3D cell colonies (CellTiter-Glo), KYSE-70; format: cell-based; conditions: 7 days
Protocol: as §4, §5

TE-1 cells = test: Cancer cell viability assay with 3D cell colonies (CellTiter-Glo), TE-1; format: cell-based; conditions: 7 days
Protocol: as §4, §5

OVCAR-8 cells = test: Cancer cell viability assay with 3D cell colonies (CellTiter-Glo), OVCAR-8; format: cell-based; conditions: 3D tumorsphere growth, 7 days
Protocol: as §4, §5

[6] = target: T2, recombinant MBP-tagged LINE1 protein (238-1061) (Homo sapiens, UniProt O00370); test: Homogeneous time-resolved fluorescence (HTRF) LINE1 RT assay; format: biochemical; conditions: 25° C., 60 minutes, read-out: IC50 for inhibition of LINE1 reverse transcriptase
T2 construct: recombinant MBP-tagged LINE1 protein (238-1061); MBP; made in house
Protocol: The LINE1 reverse transcriptase homogeneous time-resolved fluorescence (HTRF) assay was performed with recombinant MBP-tagged LINE1 protein (238-1061) (generated and purified according to procedures in Dai L. et al. BMC Biochemistry 2011; 12:18) in a 384-well format. Test compound was serially diluted in DMSO and further diluted in the assay buffer (50 mM Tris-HCl, 50 mM KCl, 10 mM MgCl2, 10 mM DTT, pH 8.1) to achieve a final DMSO concentration of 1%. The serially diluted compound was mixed with 64 ng/well of LINE1 enzyme, 5 nM of pre-annealed template/biotin-primer pair (synthesized at Generay Biotechnology), 10 nM of Fluorescein-12-dATP fluorescent probe (Perkin Elmer), and 1 μM dGTP/dCTP/dTTP (Thermo Fisher Scientific) in the assay buffer. The template/biotin-primer sequences were as follows:
After incubating at 25° C. for 60 minutes, the detection reagent (20 mM EDTA with streptavidin-terbium cryptate, Cisbio Bioassay) in the PPI buffer (Cisbio Bioassay) was added, and the mixture was incubated at 25° C. for 30 minutes. At the end of the incubation, fluorescence was read at ex/em=337/485 nm and ex/em=337/520 nm on an Envision 2104 plate reader (Perkin Elmer). The fluorescence ratio at 520/485 nm was used for the calculation. […] The IC50 was calculated by fitting the compound dose inhibition curve with a 4-parameter non-linear regression equation.

C#C[C@]1(CO)O[C@@H](n2cnc3c(N)nc(Cl)nc32)C[C@@H]1O [4′-ethynyl-2-chloro-2′-deoxyadenosine]
changes in IFN levels (% induction) [1]: induction of IFN | IC50 [2]: 8 nM | IC50 [3]: > 20000 nM | production of IFN-β [4]: activated production of IFN-β | IC50 [5]: 3 nM

N.N.[Cl][Pt][Cl] [Cisplatin, cisplatin]
IC50 (SK-OV-3 cells): 2.24 µM | IC50 (SW756 cells): ≤ 10 µM | IC50 (KYSE-410 cells): > 30 µM | IC50 (FaDu cells): ≤ 10 µM | IC50 (KYSE-70 cells): ≤ 10 µM | IC50 (TE-1 cells): ≤ 10 µM | IC50 (OVCAR-8 cells): 3.29 µM

C#C[C@]1(COP(=O)(O)OP(=O)(O)OP(=O)(O)O)O[C@@H](n2cnc3c(N)nc(F)nc32)C[C@@H]1O
IC50 [6]: 12.4 nM

From patent US20250186475A1, “METHODS OF TREATING MEDICAL CONDITIONS USING ISLATRAVIR OR A RELATED COMPOUND” (ROME Therapeutics, Inc., priority 2022, published 2025)
